Results reported in PubChem BioAssay AID844 (SRMLSC, 2007).
Activity calls are given as the source filed them. The rule behind the calls is not given here.

Test system: MRP1 cells, doxorubicin viability shift, 10 uM compound
Test: viability protection against doxorubicin, MRP-1 line – cell-based, doxorubicin EC50 shift, dose response (AID 844)
Conditions: for EC50: measured here: doxorubicin EC50 with compound

Row | Compound | fold increase in Dox EC50 | EC50 [µM]
1 | COc1ccccc1CNC(=O)Cn1cc2c(n1)CCCC2 | 1.66 | 8.94
2 | CCC1(C)Cc2c(sc3nnn(CC(=O)Nc4ccc(C)cc4)c(=O)c23)CO1 (stereo not drawn) | 1.07 (inactive) | 5.79
3 | CC1CC(C)CN(c2ncnc3c2cnn3-c2ccc(Cl)cc2)C1 (stereo not drawn) | 0.35 (inactive) | 1.89
4 | CC(=O)c1ccc(NC(=O)CCCN2C(=O)/C(=C/C(C)=C/c3ccccc3)SC2=S)cc1 | 0.19 (inactive) | 1.01
5 | C=CCNC(=S)NNC(=O)COc1ccc(Br)cc1 | 0.71 (inactive) | 3.82
6 | O=C(NNC(=O)c1cccc(S(=O)(=O)N2CCN(c3ccccc3)CC2)c1)c1ccc(Cl)cc1 | 1.47 (inactive) | 7.95
7 | CCOc1ccccc1NC(=O)c1cccc(NC(=O)CC(c2ccccc2)c2ccccc2)c1 | 1.2 (inactive) | 6.45
8 | CC(C)(C)NC(NC(=O)Cc1ccccc1)C(Cl)(Cl)Cl (stereo not drawn) | 1.07 (inactive) | 5.77
9 | CCN=c1scc(C)n1/N=C/c1ccc(O)c(O)c1O | 0.18 (inactive) | 0.985
10 | O=C(Nc1nnc(C(F)(F)F)s1)C1COc2ccccc2O1 (stereo not drawn) | 0.85 (inactive) | 4.56
11 | COc1ccc(OCc2nc(C#N)c(N3CCN(c4ccc(OC)cc4)CC3)o2)cc1 | 0.76 (inactive) | 4.08
12 | c1ccc2c(c1)Nc1nccnc1S2 | 0.12 (inactive) | 0.637
13 | Cc1ccc(OCc2nnc(SC3CCc4ccccc4C3=O)n2C)cc1 (stereo not drawn) | 1.22 (inactive) | 6.56
14 | COc1cc(C2NC(=O)NC(C)=C2C(=O)OCc2ccc(C)cc2)cc(OC)c1O (stereo not drawn) | 0.68 (inactive) | 3.65
15 | O=C(O)/C=C\C(=O)NC1CCCCC1 | 0.68 (inactive) | 3.67
16 | O=C(COC(=O)c1c(Cl)cccc1Cl)Nc1cc(Cl)ccc1Oc1ccccc1 | 0.36 (inactive) | 1.97
17 | Cc1cc(C)nc(N/N=C/c2cccc3ccccc23)n1 | 1 (inactive) | 5.39
18 | CCOC(=O)C1CCCN(Cc2ccc(OC)cc2OC)C1 (stereo not drawn) | 0.35 (inactive) | 1.91
19 | O=C(CSc1ncn[nH]1)N1N=C2/C(=C/c3ccco3)CCCC2C1c1ccco1 (stereo not drawn) | 0.4 (inactive) | 2.17
20 | Cc1cc(N/N=C/c2ccccc2Cl)nc(NCc2ccccc2)n1 | 0.2 (inactive) | 1.08
21 | COc1ccc(OCc2nnc(SCC(=O)N3c4ccccc4Sc4ccc(Cl)cc43)o2)cc1 | 1.1 (inactive) | 5.92
22 | COc1ccc(C(=O)Nc2ccc(S(=O)(=O)Nc3nccnc3OC)cc2)cc1 | 1.12 (inactive) | 6.04
23 | Cc1nc(=O)c(-c2ccccc2)c(C)n1-c1ccc(S(N)(=O)=O)cc1 | 1.53 | 8.25
24 | Cc1cc(C(=O)COC(=O)c2ccc3c(c2)OCO3)c(C)n1Cc1cccs1 | 1.06 (inactive) | 5.7
25 | N=C(N)SCc1cccc2ccccc12 | 0.35 (inactive) | 1.9
26 | N#CCSc1nc2cc(C(=O)N3CCC(C(N)=O)CC3)ccc2c2nc3ccccc3n12 | 0.86 (inactive) | 4.62
27 | Cn1c(=O)n(C/C=C/c2ccccc2)c(=O)c2c1nc1n2CCCN1c1ccc(F)cc1 | 0.76 (inactive) | 4.12

Row | Compound | fold increase in Dox EC50 | EC50 [µM]
28 | N#CC1=C(N)SC(N)=C(C#N)C1c1cccc(O)c1 | 1.07 (inactive) | 5.78
29 | COc1cccc(/C=N/NC(=O)C(C)n2nc(C)c([N+](=O)[O-])c2C)c1O (stereo not drawn) | 0.33 (inactive) | 1.77
30 | CCOC(=O)CN1C(=O)C(C)(C)Oc2ccc(C(=O)Nc3ccccc3OC)cc21 | 0.85 (inactive) | 4.6
31 | O=c1c(-c2nnc(SCc3ccc(Cl)cc3)o2)cccn1Cc1ccccc1 | 0.63 (inactive) | 3.4
32 | Cc1cc(C)n(CCc2nc(-c3ccc(-c4ccccc4)cc3)cs2)n1 | 1.82 | 9.8
33 | COc1ccc(N2Cc3cccc(C(=O)NC(C)CCc4ccco4)c3C2=O)cc1 (stereo not drawn) | 0.37 (inactive) | 2.02
34 | Cc1cccc(-n2c(SCC(=O)Nc3ncc(Cl)cc3Cl)nc3ccccc32)c1 | 0.81 (inactive) | 4.37
35 | Cc1ccc(NC(=O)CCNC(=O)c2ccc(Cl)cc2)cc1F | 1.15 (inactive) | 6.19
36 | CC(C)Oc1ccc(-c2nn(-c3ccccc3)cc2/C=c2\sc3ncnn3c2=O)cc1 | 0.82 (inactive) | 4.4
37 | CCC(C)c1ccc(O)c(NC(=O)c2ncn[nH]2)c1 (stereo not drawn) | 0.97 (inactive) | 5.25
38 | COC(=O)c1ccc(NC(=O)C(=O)N2CCN(C(=S)Nc3cccc(OC)c3)CC2)cc1 | 1.28 (inactive) | 6.93
39 | N#Cc1c(N)n(CCOC(=O)c2cccc(Br)c2)c2nc3ccccc3nc12 | 0.93 (inactive) | 5.04
40 | CCOc1ccc(NC(=O)Nc2cc(-c3ccccc3)sc2C(=O)OC)cc1 | 0.62 (inactive) | 3.34
41 | CC(C)CNC(=O)c1c(N)n(/N=C/c2ccccn2)c2nc3ccccc3nc12 | 0.94 (inactive) | 5.08
42 | COc1ccc(C(=O)Nc2ccccc2Cc2ccccc2)c(OC)c1 | 0.66 (inactive) | 3.54
43 | O=C(NCC(F)(F)F)Nc1nnc(C(F)(F)F)s1 | 1.54 | 8.33
44 | N#C/C(=N\Nc1ccccc1)C(=N)N1CCOCC1 | 1.15 (inactive) | 6.23
45 | Nn1c(SCC(=O)Nc2ccccc2F)nc2ccccc2c1=O | 1.41 (inactive) | 7.59
46 | Cc1c(NC(=O)c2ccccc2NS(=O)(=O)c2ccc(Br)cc2)c(=O)n(-c2ccccc2)n1C | 0.65 (inactive) | 3.53
47 | Cc1ccc(/C=C2\SC(=S)N(CCC(=O)NNS(=O)(=O)c3ccc(C)cc3)C2=O)cc1 | 0.48 (inactive) | 2.6
48 | CCN(CC)S(=O)(=O)c1ccc2c(c1)nc(SCn1nnc3ccccc3c1=O)n2CC | 0.52 (inactive) | 2.79
49 | Cc1nn(Cc2ccc(Cl)cc2Cl)c(C)c1NC(=O)c1ccc(COc2cc(Cl)ccc2Cl)o1 | 0.82 (inactive) | 4.4
50 | Cc1cc(Br)ccc1NC(=O)CNC(=O)CN1C(=O)NC2(CCCCCC2)C1=O | 1.34 (inactive) | 7.25
51 | Cc1nn(Cc2ccccc2)c(C)c1NC(=O)c1noc2c1CCc1ccccc1-2 | 0.95 (inactive) | 5.11
52 | COc1ccc(N(C(=O)Cn2cnc3ccccc32)C(C(=O)NC2CCCCC2)c2ccccc2)cc1 (stereo not drawn) | 0.38 (inactive) | 2.07
53 | CCc1ccc(-c2nc(-c3ccncc3)no2)cc1 | 0.89 (inactive) | 4.82
54 | O=C(NC(=S)Nc1nc(-c2ccccc2)cs1)c1cncc(Br)c1 | 0.99 (inactive) | 5.35
